# Laboratory results taken from ChEMBL document CHEMBL1144728, “Pyrazolo-pyrimidines: a novel heterocyclic scaffold for potent and selective p38 alpha inhibitors” (Bioorg Med Chem Lett, 2008).
# Assays:
# Liver microsomes [1] = assay: Metabolic stability in human liver microsomes assessed as metabolic rate per mg of protein; format: ADME, Microsome
# Liver microsomes [2] = assay: Metabolic stability in rat liver microsomes assessed as metabolic rate per mg of protein; format: ADME, Microsome
# [3] = Oral bioavailability in mouse at 10 mg/kg; format: ADME, organism-based; conditions: in vivo
# [4] = Clearance in mouse at 10 mg/kg, po; format: ADME, organism-based; set-up: dose 10 mg/kg, route oral; conditions: in vivo
# Mus musculus = assay: Volume of distribution in mouse at 10 mg/kg, po; format: ADME, organism-based; set-up: dose 10 mg/kg, route oral; conditions: in vivo
# [5] = Terminal half life in mouse at 10 mg/kg, po; format: ADME, organism-based; set-up: dose 10 mg/kg, route oral; conditions: in vivo
smiles,measurement,setting,value
Cc1ccc(C(=O)Nc2ccon2)cc1Nc1ncnc2c1cnn2-c1ccccc1,Stability,Liver microsomes [1],0 nmol/min
same,Stability,Liver microsomes [2],0.005 nmol/min/mg
same,bioavailability,[3],60%
same,CL/F,[4],5 mL/min/kg
same,Vd,Mus musculus,1.3 L/kg
same,half-life,[5],4.1 h
